According to patent US5986131A, “RXR selective ligands” (Hoffmann-La Roche Inc., priority 1997, dated 1999):

Columns and labels:
RAR γ [1] = biological target: T1, RAR γ (Homo sapiens, UniProt P13631); assay: RARγ binding; conditions: Table 6
T1 sequence (P13631 1-454): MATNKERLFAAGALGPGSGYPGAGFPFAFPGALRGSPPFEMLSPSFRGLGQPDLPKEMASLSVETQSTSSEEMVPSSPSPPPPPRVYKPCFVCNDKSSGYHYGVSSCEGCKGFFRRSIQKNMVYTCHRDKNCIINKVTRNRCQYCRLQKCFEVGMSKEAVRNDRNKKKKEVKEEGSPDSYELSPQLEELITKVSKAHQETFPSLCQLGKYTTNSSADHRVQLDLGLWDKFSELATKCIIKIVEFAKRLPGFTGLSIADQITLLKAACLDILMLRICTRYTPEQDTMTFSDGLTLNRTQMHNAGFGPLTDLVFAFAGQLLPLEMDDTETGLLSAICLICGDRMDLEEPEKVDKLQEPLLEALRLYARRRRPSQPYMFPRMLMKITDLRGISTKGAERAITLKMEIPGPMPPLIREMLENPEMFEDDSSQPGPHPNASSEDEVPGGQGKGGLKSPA
Description: (§1) Methods for determining the binding and transactivation properties of retinoids with regard to the RAR receptors and RXR receptors are known in the art, e.g., Levin et al., Nature, 355:359-361 (Jan. 23, 1992); Allenby et al., Proc. Natl. Acad. Sci. USA, 90:30-34 (January, 1993); Allenby et al., J. Biol. Chem., 269:16689-16695 (Jun. 17, 1994). Methods essentially as described in those publications were used to determine the binding and transactivation properties of retinoids reported in the Examples herein.
(§2) Retinoid receptor binding and transactivation assays were performed on Compound B and Example 6 as described above.

RARα [2] = biological target: T2, RARα (Homo sapiens, UniProt P10276); assay: RARα activation (transactivation); assay type: cell-based; conditions: Table 6
T2 sequence (P10276 1-462): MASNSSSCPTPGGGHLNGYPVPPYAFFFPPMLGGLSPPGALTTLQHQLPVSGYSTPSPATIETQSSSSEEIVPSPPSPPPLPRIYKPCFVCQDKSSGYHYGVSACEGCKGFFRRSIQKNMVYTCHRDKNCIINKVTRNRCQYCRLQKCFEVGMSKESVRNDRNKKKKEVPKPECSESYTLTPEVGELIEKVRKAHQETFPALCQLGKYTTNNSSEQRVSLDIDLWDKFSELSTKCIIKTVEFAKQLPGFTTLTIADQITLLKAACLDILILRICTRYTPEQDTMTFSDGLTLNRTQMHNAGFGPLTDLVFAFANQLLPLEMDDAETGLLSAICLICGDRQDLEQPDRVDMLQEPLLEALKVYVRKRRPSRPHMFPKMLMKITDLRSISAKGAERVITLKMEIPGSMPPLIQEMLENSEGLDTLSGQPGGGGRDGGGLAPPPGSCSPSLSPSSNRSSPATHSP
Description: (§3) Methods essentially as described in those publications were used to determine the binding and transactivation properties of retinoids reported in the Examples herein.

RARα [3] = biological target: T2, RARα; assay: RARα binding; conditions: Table 6; read-out: RAR Binding IC50 (α)
Description: as §3

RAR γ [4] = biological target: T1, RAR γ; assay: RARγ activation (transactivation); assay type: cell-based; conditions: Table 6; @ 1000 nM; read-out: RAR Activation % max (γ)
Description: as §1, §2

RAR β [5] = biological target: T3, RAR β (Homo sapiens, UniProt P10826); assay: RARβ binding; conditions: Table 6
T3 sequence (P10826 1-455): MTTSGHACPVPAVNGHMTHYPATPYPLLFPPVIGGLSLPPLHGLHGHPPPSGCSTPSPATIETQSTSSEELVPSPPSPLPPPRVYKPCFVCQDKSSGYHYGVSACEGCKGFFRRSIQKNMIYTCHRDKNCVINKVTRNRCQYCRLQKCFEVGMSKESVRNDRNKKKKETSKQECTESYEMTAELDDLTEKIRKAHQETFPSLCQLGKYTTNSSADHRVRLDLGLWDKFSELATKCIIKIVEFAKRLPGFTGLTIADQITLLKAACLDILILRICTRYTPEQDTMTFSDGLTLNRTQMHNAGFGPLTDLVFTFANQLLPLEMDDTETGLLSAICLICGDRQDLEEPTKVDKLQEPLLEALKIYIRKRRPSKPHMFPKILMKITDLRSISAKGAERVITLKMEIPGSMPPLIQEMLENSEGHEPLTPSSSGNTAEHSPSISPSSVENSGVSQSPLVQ
Description: as §1, §2

RXRα = biological target: T4, RXRα (Homo sapiens, UniProt P19793); assay: RXRα activation (transactivation); assay type: cell-based; conditions: Table 6; @ 1000 nM; read-out: RXR Activation % max (α)
T4 sequence (P19793 1-462): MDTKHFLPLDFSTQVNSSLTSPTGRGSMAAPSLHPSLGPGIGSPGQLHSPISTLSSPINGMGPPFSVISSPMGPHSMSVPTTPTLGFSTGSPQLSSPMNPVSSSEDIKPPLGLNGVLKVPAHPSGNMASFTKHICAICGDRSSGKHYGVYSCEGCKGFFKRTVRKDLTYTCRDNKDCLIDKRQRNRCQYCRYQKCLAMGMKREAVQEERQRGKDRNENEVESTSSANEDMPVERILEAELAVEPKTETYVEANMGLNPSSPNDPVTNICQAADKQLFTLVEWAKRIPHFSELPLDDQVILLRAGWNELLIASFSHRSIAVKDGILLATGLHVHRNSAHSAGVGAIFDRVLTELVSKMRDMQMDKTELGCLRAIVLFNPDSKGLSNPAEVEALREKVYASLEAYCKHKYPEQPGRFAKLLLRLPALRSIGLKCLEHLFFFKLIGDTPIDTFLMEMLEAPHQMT
Description: as §3

RAR β [6] = biological target: T3, RAR β; assay: RARβ activation (transactivation); assay type: cell-based; conditions: Table 6
Description: as §1, §2

T47-D = T47-D breast carcinoma cell growth inhibition (MTT), combination; assay type: cell-based, human; conditions: Compound B plus constant concentration of Example 6; FIG. 7
Procedure: The compound of Example 6 was tested for its ability to inhibit a human breast carcinoma cell line in combination with a retinoid having RARα activity, all-E-3,7-dimethyl-9-[(2-methoxy-4-methyl-6-octyloxy)phenyl]-2,4,6,8-nonatetraenoic acid (Compound B), as shown: [drawing 7]
Breast carcinoma cell line, T47-D, obtained from the ATCC [Accession No. HTB133] was grown in RPMI 1640 media supplemented with 10% FBS, 10 μg/ml insulin and 13 ng/ml gentamicin, and incubated at 37° C., 4.5% CO2 and 95.5% humidified air. The cells were harvested upon reaching 70-80% confluency and pelleted. The cells were resuspended in the media and seeded (150 μl/well) into 96-well plates (Corning) at a density allowing linear growth over a seven day assay period (i.e., T47-D seeded at 4×10^3 cells/well). […]
Liquid was removed by aspiration, 50 μl 95% ethanol was added, and the plates were shaken (Mini-Orbital Shaker, Bellco) for 15 minutes to solubilize the formazan product. The optical density of each well was measured using an automatic plate reader (Microplate EL320 Reader, Bio-Tek Instruments) with a test wavelength of 570 nm and a reference wavelength of 660 nm. The amount of cell growth inhibition caused by various concentrations of Compound B in combination with a constant concentration of the compound of Example 6 was determined in accordance with the following equation: [formula]

| Compound | IC50 (RAR γ [1]) [nM] | EC50 (RARα [2]; read-out: RAR Activation EC50 (α)) [nM] | IC50 (RARα [3]) [nM] | Emax at 1 µM (RAR γ [4]) [%] | IC50 (RAR β [5]) [nM] | Emax at 1 µM (RXRα) [%] | EC50 (RAR β [6]) [nM] | Emax at 1 µM (RARα [2]; @ 1000 nM, read-out: RAR Activation % max (α)) [%] | antiproliferative activity in breast cancer cell line in combination (potentiation of Compound B) (T47-D) | Emax at 1 µM (RAR β [6]; @ 1000 nM, read-out: RAR Activation % max (β)) [%] |
| --- | --- | --- | --- | --- | --- | --- | --- | --- | --- | --- |
| CCCCCCCCOc1cc(C)cc(OC)c1/C=C/C(C)=C/C=C/C(C)=C/C(=O)O [Compound B, all-E-3,7-dimethyl-9-[(2-methoxy-4-methyl-6-octyloxy)phenyl]-2,4,6,8-nonatetraenoic acid] | > 10000 | 11 | 240 | 48 | 500 | 0 | 5.3 |  |  |  |
| CC1=C(/C=C/C2=C(/C=C/C(C)=C/C(=O)O)CCCCC2)C(C)(C)CCC1 [Example 6, (2E,4E)-3-Methyl-5-(2-((E)-2(2,6,6-trimethyl-1-cyclohexen-1-yl)ethenyl)-1-cyclohepten-1-yl)-2,4-pentadienoic acid] |  |  |  | 9 |  |  |  | 4 | Enhanced antiproliferative activity | 8 |
